Target: CYP2C9 (Homo sapiens, UniProt P11712)
Conditions: microsomes
Protocol: CYP inhibition in liver microsomes. […] Samples were analyzed for metabolite formation by LC-MS/MS. The results were expressed using the peak area ratio of analyte to internal standard, based on the calibration curves.
Where Range=fitted uninhibited value, s=slope factor, x=inhibitor concentration, y=% control activity.

CYP2C9, sequence (P11712 whole entry): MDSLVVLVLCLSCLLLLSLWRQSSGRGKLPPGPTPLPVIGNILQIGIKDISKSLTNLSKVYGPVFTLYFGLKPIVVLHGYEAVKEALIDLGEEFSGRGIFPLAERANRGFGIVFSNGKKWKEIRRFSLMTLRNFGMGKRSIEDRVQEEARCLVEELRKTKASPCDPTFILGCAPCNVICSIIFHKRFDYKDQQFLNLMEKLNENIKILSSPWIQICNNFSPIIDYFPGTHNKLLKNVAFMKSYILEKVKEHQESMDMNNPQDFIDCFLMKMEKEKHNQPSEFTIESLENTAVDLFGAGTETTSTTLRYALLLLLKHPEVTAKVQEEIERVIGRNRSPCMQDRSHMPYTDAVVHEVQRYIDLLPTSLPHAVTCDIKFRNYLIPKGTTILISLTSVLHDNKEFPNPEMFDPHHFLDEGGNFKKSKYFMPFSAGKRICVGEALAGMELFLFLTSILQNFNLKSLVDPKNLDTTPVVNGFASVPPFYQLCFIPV

COC1C=CC=C(C)C(=O)NC2=CC(=O)C(NCCCCCC[P+](c3ccccc3)(c3ccccc3)c3ccccc3)=C(CC(C)CC(OC)C(O)C(C)C=C(C)C1OC(N)=O)C2=O.F[P-](F)(F)(F)(F)F (stereo not shown) [Gamitrinib]
IC50: 1100 nM
